Test results reported in PubChem BioAssay (NCI).
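Grown in 96-well plates, cells were treated for 48 hours with each compound at five concentrations. Insufficient inhibition: endpoint recorded as highest concentration tested. TGI denotes the concentration required for complete inhibition of growth.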

Legend:
Assay in all cases: NCI tumour cell line growth inhibition, 48 h
786-0 renal = test system: 786-0 renal
A498 renal = test system: A498 renal
A549 NSCLC = test system: A549 NSCLC
ACHN renal = test system: ACHN renal
CAKI-1 renal = test system: CAKI-1 renal
CCRF-CEM leukemia = test system: CCRF-CEM leukemia
COLO 205 colon = test system: COLO 205 colon
DLD-1 colon = test system: DLD-1 colon
DMS 114 small cell lung = test system: DMS 114 small cell lung
DMS 273 small cell lung = test system: DMS 273 small cell lung
EKVX NSCLC = test system: EKVX NSCLC
HCC-2998 colon = test system: HCC-2998 colon
HCT-116 colon = test system: HCT-116 colon
HCT-15 colon = test system: HCT-15 colon
HL-60(TB) leukemia = test system: HL-60(TB) leukemia
HOP-18 NSCLC = test system: HOP-18 NSCLC
HOP-62 NSCLC = test system: HOP-62 NSCLC
HOP-92 NSCLC = test system: HOP-92 NSCLC
HT29 colon = test system: HT29 colon
IGROV1 ovarian = test system: IGROV1 ovarian
K-562 leukemia = test system: K-562 leukemia
KM12 colon = test system: KM12 colon
KM20L2 colon = test system: KM20L2 colon
LOX IMVI melanoma = test system: LOX IMVI melanoma
LXFL 529 NSCLC = test system: LXFL 529 NSCLC
M14 melanoma = test system: M14 melanoma
M19-MEL melanoma = test system: M19-MEL melanoma
MALME-3M melanoma = test system: MALME-3M melanoma
MCF7 breast = test system: MCF7 breast
MOLT-4 leukemia = test system: MOLT-4 leukemia
NCI-H226 lung = test system: NCI-H226 lung
NCI-H23 lung = test system: NCI-H23 lung
NCI-H460 lung = test system: NCI-H460 lung
NCI-H522 lung = test system: NCI-H522 lung
NCI/ADR-RES ovarian = test system: NCI/ADR-RES ovarian
OVCAR-3 ovarian = test system: OVCAR-3 ovarian
OVCAR-4 ovarian = test system: OVCAR-4 ovarian
OVCAR-5 ovarian = test system: OVCAR-5 ovarian
OVCAR-8 ovarian = test system: OVCAR-8 ovarian
P388 leukemia = test system: P388 leukemia
P388/ADR leukemia = test system: P388/ADR leukemia
RPMI-8226 leukemia = test system: RPMI-8226 leukemia
RXF 393 renal = test system: RXF 393 renal
SF-268 CNS = test system: SF-268 CNS
SF-295 CNS = test system: SF-295 CNS
SF-539 CNS = test system: SF-539 CNS
SK-MEL-2 melanoma = test system: SK-MEL-2 melanoma
SK-MEL-28 melanoma = test system: SK-MEL-28 melanoma
SK-MEL-5 melanoma = test system: SK-MEL-5 melanoma
SK-OV-3 ovarian = test system: SK-OV-3 ovarian
SN12C renal = test system: SN12C renal
SN12K1 renal = test system: SN12K1 renal
SNB-19 CNS = test system: SNB-19 CNS
SNB-75 CNS = test system: SNB-75 CNS
SNB-78 CNS = test system: SNB-78 CNS
SR leukemia = test system: SR leukemia
SW-620 colon = test system: SW-620 colon
U251 CNS = test system: U251 CNS
UACC-257 melanoma = test system: UACC-257 melanoma
UACC-62 melanoma = test system: UACC-62 melanoma
UO-31 renal = test system: UO-31 renal
RXF-631 renal = test system: RXF-631 renal
TK-10 renal = test system: TK-10 renal
XF 498 CNS = test system: XF 498 CNS

## CNC(=O)OCc1nc(SC(C)C)n(C)c1COC(=O)NC
786-0 renal
  TGI: > 100 µM
A498 renal
  TGI: > 100 µM
A549 NSCLC
  TGI: > 100 µM
ACHN renal
  TGI: > 100 µM
CAKI-1 renal
  TGI: > 100 µM
CCRF-CEM leukemia
  TGI: > 88 µM
COLO 205 colon
  TGI: > 100 µM
DLD-1 colon
  TGI: > 100 µM
DMS 114 small cell lung
  TGI: > 100 µM
DMS 273 small cell lung
  TGI: > 100 µM
EKVX NSCLC
  TGI: > 100 µM
HCC-2998 colon
  TGI: > 100 µM
HCT-116 colon
  TGI: > 100 µM
HCT-15 colon
  TGI: > 100 µM
HL-60(TB) leukemia
  TGI: > 100 µM
HOP-18 NSCLC
  TGI: > 100 µM
HOP-62 NSCLC
  TGI: > 100 µM
HOP-92 NSCLC
  TGI: > 100 µM
HT29 colon
  TGI: > 100 µM
IGROV1 ovarian
  TGI: > 100 µM
K-562 leukemia
  TGI: > 100 µM
KM12 colon
  TGI: > 100 µM
KM20L2 colon
  TGI: > 100 µM
LOX IMVI melanoma
  TGI: > 100 µM
LXFL 529 NSCLC
  TGI: > 100 µM
M14 melanoma
  TGI: > 100 µM
M19-MEL melanoma
  TGI: > 100 µM
MALME-3M melanoma
  TGI: > 100 µM
MCF7 breast
  TGI: > 100 µM
MOLT-4 leukemia
  TGI: > 86.6 µM
NCI-H226 lung
  TGI: > 100 µM
NCI-H23 lung
  TGI: > 100 µM
NCI-H460 lung
  TGI: > 100 µM
NCI-H522 lung
  TGI: > 100 µM
NCI/ADR-RES ovarian
  TGI: > 100 µM
OVCAR-3 ovarian
  TGI: > 100 µM
OVCAR-4 ovarian
  TGI: > 100 µM
OVCAR-5 ovarian
  TGI: > 100 µM
OVCAR-8 ovarian
  TGI: > 100 µM
P388 leukemia
  TGI: > 100 µM
P388/ADR leukemia
  TGI: > 100 µM
RPMI-8226 leukemia
  TGI: > 100 µM
RXF 393 renal
  TGI: > 100 µM
SF-268 CNS
  TGI: > 100 µM
SF-295 CNS
  TGI: > 100 µM
SF-539 CNS
  TGI: > 100 µM
SK-MEL-2 melanoma
  TGI: > 100 µM
SK-MEL-28 melanoma
  TGI: > 100 µM
SK-MEL-5 melanoma
  TGI: > 100 µM
SK-OV-3 ovarian
  TGI: > 100 µM
SN12C renal
  TGI: > 100 µM
SN12K1 renal
  TGI: > 100 µM
SNB-19 CNS
  TGI: > 100 µM
SNB-75 CNS
  TGI: > 100 µM
SNB-78 CNS
  TGI: > 100 µM
SR leukemia
  TGI: > 100 µM
SW-620 colon
  TGI: > 100 µM
U251 CNS
  TGI: > 100 µM
UACC-257 melanoma
  TGI: > 100 µM
UACC-62 melanoma
  TGI: > 100 µM
UO-31 renal
  TGI: > 100 µM

## CCOC(=O)C1C=C2O[C@@H]3OC4(CCCCC4)O[C@@H]3C2[C@H]2C(=O)C=CC(=O)[C@@]12C(=O)OC (stereo partly specified)
786-0 renal
  TGI: 18.7 µM
A498 renal
  TGI: 32.6 µM
A549 NSCLC
  TGI: 33.1 µM
ACHN renal
  TGI: 32.2 µM
CAKI-1 renal
  TGI: 31.3 µM
CCRF-CEM leukemia
  TGI: 9.94 µM
COLO 205 colon
  TGI: 22.4 µM
DLD-1 colon
  TGI: 35.1 µM
DMS 114 small cell lung
  TGI: 9.68 µM
DMS 273 small cell lung
  TGI: 22.9 µM
EKVX NSCLC
  TGI: 36.1 µM
HCC-2998 colon
  TGI: 28 µM
HCT-116 colon
  TGI: 19.1 µM
HCT-15 colon
  TGI: 28.8 µM
HL-60(TB) leukemia
  TGI: 5.83 µM
HOP-18 NSCLC
  TGI: 32.4 µM
HOP-62 NSCLC
  TGI: 36.3 µM
HOP-92 NSCLC
  TGI: 26.2 µM
HT29 colon
  TGI: 19.4 µM
IGROV1 ovarian
  TGI: 27.6 µM
K-562 leukemia
  TGI: 34.2 µM
KM12 colon
  TGI: 27.8 µM
KM20L2 colon
  TGI: 30.6 µM
LOX IMVI melanoma
  TGI: 32.9 µM
LXFL 529 NSCLC
  TGI: 22.9 µM
M14 melanoma
  TGI: 30.1 µM
M19-MEL melanoma
  TGI: 31.4 µM
MALME-3M melanoma
  TGI: 31.2 µM
MOLT-4 leukemia
  TGI: 8.71 µM
NCI-H226 lung
  TGI: 36.4 µM
NCI-H23 lung
  TGI: 45.2 µM
NCI-H460 lung
  TGI: 33.4 µM
NCI-H522 lung
  TGI: 14.5 µM
OVCAR-3 ovarian
  TGI: 22.1 µM
OVCAR-4 ovarian
  TGI: 23.3 µM
OVCAR-5 ovarian
  TGI: 31.7 µM
OVCAR-8 ovarian
  TGI: 13.9 µM
RPMI-8226 leukemia
  TGI: 8.06 µM
RXF 393 renal
  TGI: 3.59 µM
RXF-631 renal
  TGI: 51.8 µM
SF-268 CNS
  TGI: 29.6 µM
SF-295 CNS
  TGI: 32.6 µM
SF-539 CNS
  TGI: 6.16 µM
SK-MEL-2 melanoma
  TGI: 30.6 µM
SK-MEL-28 melanoma
  TGI: 30 µM
SK-MEL-5 melanoma
  TGI: 33.9 µM
SK-OV-3 ovarian
  TGI: 32.2 µM
SN12C renal
  TGI: 31.5 µM
SNB-19 CNS
  TGI: 22.9 µM
SNB-75 CNS
  TGI: 35.4 µM
SNB-78 CNS
  TGI: 19.3 µM
SR leukemia
  TGI: 6.71 µM
SW-620 colon
  TGI: 28.6 µM
TK-10 renal
  TGI: 26.5 µM
U251 CNS
  TGI: 21.5 µM
UACC-257 melanoma
  TGI: 30.8 µM
UACC-62 melanoma
  TGI: 30.9 µM
UO-31 renal
  TGI: 29.9 µM
XF 498 CNS
  TGI: 12.8 µM

## O=S(=O)(O)CS(=O)(=O)OCCCl
786-0 renal
  TGI: > 100 µM
A498 renal
  TGI: > 100 µM
A549 NSCLC
  TGI: > 100 µM
ACHN renal
  TGI: > 100 µM
CAKI-1 renal
  TGI: > 100 µM
COLO 205 colon
  TGI: > 100 µM
DLD-1 colon
  TGI: > 100 µM
DMS 114 small cell lung
  TGI: > 100 µM
DMS 273 small cell lung
  TGI: > 100 µM
EKVX NSCLC
  TGI: > 100 µM
HCC-2998 colon
  TGI: > 100 µM
HCT-116 colon
  TGI: > 100 µM
HL-60(TB) leukemia
  TGI: > 100 µM
HOP-18 NSCLC
  TGI: > 100 µM
HOP-62 NSCLC
  TGI: > 100 µM
HOP-92 NSCLC
  TGI: > 100 µM
HT29 colon
  TGI: > 100 µM
IGROV1 ovarian
  TGI: > 100 µM
K-562 leukemia
  TGI: > 100 µM
KM12 colon
  TGI: > 100 µM
KM20L2 colon
  TGI: > 100 µM
LOX IMVI melanoma
  TGI: > 100 µM
LXFL 529 NSCLC
  TGI: > 100 µM
M14 melanoma
  TGI: > 100 µM
M19-MEL melanoma
  TGI: > 100 µM
MALME-3M melanoma
  TGI: > 100 µM
MOLT-4 leukemia
  TGI: > 100 µM
NCI-H226 lung
  TGI: > 100 µM
NCI-H23 lung
  TGI: > 100 µM
NCI-H460 lung
  TGI: > 100 µM
NCI-H522 lung
  TGI: > 100 µM
OVCAR-3 ovarian
  TGI: > 100 µM
OVCAR-4 ovarian
  TGI: > 100 µM
OVCAR-5 ovarian
  TGI: > 100 µM
OVCAR-8 ovarian
  TGI: > 100 µM
RPMI-8226 leukemia
  TGI: > 100 µM
RXF 393 renal
  TGI: > 100 µM
RXF-631 renal
  TGI: > 100 µM
SF-268 CNS
  TGI: > 100 µM
SF-295 CNS
  TGI: > 100 µM
SF-539 CNS
  TGI: > 100 µM
SK-MEL-28 melanoma
  TGI: > 100 µM
SK-MEL-5 melanoma
  TGI: > 100 µM
SK-OV-3 ovarian
  TGI: > 100 µM
SN12C renal
  TGI: > 100 µM
SNB-19 CNS
  TGI: > 100 µM
SNB-75 CNS
  TGI: > 100 µM
SNB-78 CNS
  TGI: > 100 µM
SR leukemia
  TGI: > 100 µM
SW-620 colon
  TGI: > 100 µM
TK-10 renal
  TGI: > 100 µM
U251 CNS
  TGI: > 100 µM
UACC-257 melanoma
  TGI: > 100 µM
UACC-62 melanoma
  TGI: > 100 µM
UO-31 renal
  TGI: > 100 µM
XF 498 CNS
  TGI: > 100 µM
